The format of data set [1] is cell-based, human. The procedure:
(§1) The toxicity of each peptide was evaluated on human cell lines using a resazurin assay as previously described. Human lung epithelial cells BEAS-2B (ATCC CRL-9609), liver cells HepG2 (ATCC HB-8065), and kidney cells A498 (ATCC HTB-44) were used. All cells were cultured in Dulbecco's modified essential medium (DMEM) supplemented with 10% heat-inactivated fetal calf serum (FBS, Thermo Fisher Scientific), and 1% L-glutamine (Thermo Fisher Scientific) (DMEM^FBS) at 37 °C in a 5% CO2 incubator to subconfluent concentrations. Cells were detached with trypsin–EDTA solution (Thermo Fisher Scientific), and around 1 × 10^4 cells/well were seeded in 96-well flat-bottom microplates (Greiner Bio-One) with a lid, and cultured for additional 48–72 h at 37 °C and 5% CO2 until cell confluence. The medium was removed, and 100 µL of serial two-fold dilutions of the peptides in DMEM^FBS were added to each well. Following a 48 h-incubation period at 37 °C and 5% CO2, cell viability was evaluated using the resazurin assay as described above. Fluorescence of the resazurin metabolite resorufin (λex/λem = 530/590 nm) was measured after 2 h incubation at 37 °C and 5% CO2 in the dark, with a microplate reader (Biotek, Synergy Mx, Colmar, France). The cytotoxic concentration of peptide leading to 50% cell death as compared to the control was defined as the CC50, and was determined by fitting the RFU% sigmoidal dose–response curves in Kaleidagraph 4.2 software (Synergy Software). All experiments were conducted in triplicate.

Data set [2] is classed as cell-based, human. The procedure: as §1
The source holds these as a separate data set.

Another data set has as its system A498 cells. The data set can be described thus: Cytotoxic assay on human cells (resazurin). It is filed as cell-based. How it is done: as §1
For orientation: Resazurin is reduced to fluorescent resorufin, in cell work by metabolically active cells.

The next data set concerns human erythrocytes. The data set is classed as cell-based. To be noted: for HC10 / HC50: red cells of human, 1 h. How it is done:
The hemolytic activity of each peptide was determined as previously described. Briefly, human erythrocytes (red blood cells, hRBC; Divbioscience, Ulvenhout, Netherlands) were washed 2-times with sterile phosphate buffered saline (PBS; Thermo Fisher Scientific) and pelleted by centrifugation at 800 rpm for 5 min; then resuspended in DMEM^FBS to a final erythrocyte concentration of 8% (v/v). Then, 100 µL of this hRBC solution was distributed to each well of sterile 96-well flat-bottom microplates (Greiner Bio-One) containing serial two-fold dilutions of arenicin, arenicin-Abu derivative or controls in DMEM^FBS to a final volume of 200 µL. After 1 h incubation at 37 °C, microplates were centrifuged at 800 rpm for 5 min. Then, 100 µL of supernatant were carefully transferred to a new 96-well microplate, and OD405 corresponding to the release of hemoglobin was measured using a microplate reader (Biotek, Synergy Mx, Colmar, France). DMEM^FBS and Triton-X100 at 0.1% (v/v) were used as negative (i.e., 0% hemolysis) and positive (i.e., 100% hemolysis) controls, respectively. The concentration of peptide leading to 10% and 50% of hemolysis compared to the positive control was defined as the HC10 and HC50, respectively, and was determined by fitting the dose–response curves in Kaleidagraph 4.2 software (Synergy Software). All experiments were done in triplicate.

For the next data set, the system named is M. abscessus S and R. It is filed as cell-based, Mycobacterium abscessus. How it is done:
Mycobacterium abscessus S and R strains (CIP 104536^ T) were grown in Middlebrook 7H9 medium supplemented with 0.05% (v/v) Tween 80, 0.2% (v/v) glycerol and 10% (v/v) oleic acid–albumin–dextrose–catalase (OADC enrichment; BD Difco) (7H9-S^OADC) at 37 °C under stirring (200 rpm). We used Ar-1 (RWC^3VYAYVRVRGVLVRYRRC^20W) and Ar-1-Abu, in which the cysteines in position 3 and 20 were replaced by alpha-amino-n-butyric acid (Abu) residues. […]
For determining the antimicrobial activity of the different peptides, the Middlebrook 7H9 broth microdilution method was used in sterile 96-well flat-bottom Greiner Bio-One polypropylene microplates with lid (Thermo Fisher Scientific) using the resazurin microtiter assay (REMA). […] Fluorescence of the metabolite resorufin (λex/λem = 530/590 nm) was measured using a Tecan Spark 10 M ™ multimode microplate reader (Tecan Group Ltd, France). Relative fluorescence units (RFU) were defined as: RFU% = (test well FU/mean FU of control B wells) × 100. MIC50 and MIC90 values were determined by fitting the RFU% sigmoidal dose–response curves in Kaleidagraph 4.2 software (Synergy Software, Reading, PA). […]

Data set [3] concerns M. abscessus CIP 104536 T R variant. Nature of the data set: microbe, parasite or virus in culture. The data set is classed as cell-based, Mycobacterium abscessus. The conditions noted are these: R variant, REMA, 5 days. The procedure: (§2) Mycobacterium abscessus S and R strains (CIP 104536^ T) were grown in Middlebrook 7H9 medium supplemented with 0.05% (v/v) Tween 80, 0.2% (v/v) glycerol and 10% (v/v) oleic acid–albumin–dextrose–catalase (OADC enrichment; BD Difco) (7H9-S^OADC) at 37 °C under stirring (200 rpm). We used Ar-1 (RWC^3VYAYVRVRGVLVRYRRC^20W) and Ar-1-Abu, in which the cysteines in position 3 and 20 were replaced by alpha-amino-n-butyric acid (Abu) residues. We also tested Ar-2 (RWC^3VYAYVRIRGVLVRYRRC^20W), Ar-2-Abu (cysteines 3 and 20 replaced), Ar-3 (GFC^3WYVC^7VYRNGVRVC^16YRRC^20N), Ar-3-Abu (all four cysteines were replaced by Abu), Ar-3(3–20) (cysteines 7 and 16 replaced), and Ar-3(7–16) (cysteines 3 and 20 replaced). All arenicins and arenicin-Abu derivatives were obtained from GenScript (Piscataway, NJ, USA) with purity higher than 95%.
(§3) For determining the antimicrobial activity of the different peptides, the Middlebrook 7H9 broth microdilution method was used in sterile 96-well flat-bottom Greiner Bio-One polypropylene microplates with lid (Thermo Fisher Scientific) using the resazurin microtiter assay (REMA). Briefly, Mycobacterium abscessus was cultured up to mid log-phase (OD600 ~ 1.5–2) and diluted to a cell density of 5 × 10^6 cells/mL in 7H9-S^OADC. Then, 100 µL of this above inoculum was distributed to each well containing serial two-fold dilutions of arenicin, arenicin derivative or controls to a final volume of 200 µL. Growth controls containing no peptide (i.e., bacteria only = B), inhibition controls containing 50 µg/mL kanamycin (Euromedex, Souffelweyersheim, France) and sterility controls (i.e., medium only) without bacteria were included. After 5 days incubation at 37° C in a humidity chamber to prevent evaporation, 20 µL of a 0.025% (w/v) resazurin solution was added to each well. The microplate was re-incubated until appearance of a color change from blue to pink in the control well (i.e., bacteria without antibiotics). Fluorescence of the metabolite resorufin (λex/λem = 530/590 nm) was measured using a Tecan Spark 10 M ™ multimode microplate reader (Tecan Group Ltd, France). Relative fluorescence units (RFU) were defined as: RFU% = (test well FU/mean FU of control B wells) × 100. MIC50 and MIC90 values were determined by fitting the RFU% sigmoidal dose–response curves in Kaleidagraph 4.2 software (Synergy Software, Reading, PA). The concentration of peptide leading to 50% and 90% inhibition of M. abscessus growth was defined as the MIC50 and MIC90, respectively. All experiments were performed independently at least three times.

The test system of data set [4] is M. abscessus CIP 104536 T S variant. Nature of the data set: microbe, parasite or virus in culture. The data set is classed as cell-based, Mycobacterium abscessus. To be noted: S variant, REMA, 5 days. The procedure:
as §2, §3

The nature of data set [5]: Cytotoxic assay on human cells (resazurin). The data set is classed as cell-based. The conditions noted are these: A498, 48 h exposure. The procedure: as §1
A further data set has as its system M. abscessus R. Nature of the data set: Induction of resistance assay. The data set is classed as cell-based, Mycobacterium abscessus. To be noted: after 20–30 days of exposure. The procedure: (§4) Induction of bacterial resistance by Ar-1 was achieved by exposure of M. abscessus S and R to Ar-1 or to the control antibiotic clarithromycin (CLR) for 42 consecutive days, and with repeated broth microdilution susceptibility testing and subsequent MIC determination. After each MIC determination, the well containing the highest concentration of Ar-1 or CLR that allows bacterial growth was diluted 1:1000 in 7H9-S^OADC and used as inoculum for the next MIC assay with fresh amounts of Ar-1 or CLR.

The subject of the next data set is M. abscessus S. The data set can be described thus: Induction of resistance assay. It is filed as cell-based, Mycobacterium abscessus. The conditions noted are these: after 20–30 days of exposure. How it is done:
as §4

[6] abbreviates: 50% inhibition of in vitro growth.
The mark [7] stands for this setting: 90% inhibition of in vitro growth.

The structures appear in SMILES notation. Where two headings read alike, the source gives them in different places. Positions of bridges follow the written chain, without caps; N, C: chain ends. Non-standard residues stand in square brackets, D forms with d. Residues, ends and D or L forms follow the SMILES beside them. Abu = CC[C@H](N)C(=O)O

For orientation: CC50 means the concentration at which the toxic effect on the cells reaches its halfway point. As usually defined, the HC50 is the concentration giving 50% haemolysis. For `CC[C@H](NC(=O)[C@H](CCCNC(=N)N)NC(=O)[C@H](CCCNC(=N)N)NC(=O)[C@H](Cc1ccc(O)cc1)NC(=O)[C@H](CCCNC(=N)N)NC(=O)[C@@H](NC(=O)[C@H](CC(C)C)NC(=O)[C@@H](NC(=O)CNC(=O)[C@H](CCCNC(=N)N)NC(=O)[C@@H](NC(=O)[C@H](CCCNC(=N)N)NC(=O)[C@@H](NC(=O)[C@H](Cc1ccc(O)cc1)NC(=O)[C@H](C)NC(=O)[C@H](Cc1ccc(O)cc1)NC(=O)[C@@H](NC(=O)[C@H](CC)NC(=O)[C@H](Cc1c[nH]c2ccccc12)NC(=O)[C@@H](N)CCCNC(=N)N)C(C)C)C(C)C)C(C)C)C(C)C)C(C)C)C(=O)N[C@@H](Cc1c[nH]c2ccccc12)C(=O)O` [Ar-1-Abu] (H-RW[Abu]VYAYVRVRGVLVRYRR[Abu]W-OH), the CC50 in [1] was greater than 100 µM. Moreover, in [2], the CC50 is greater than 100 µM. The “toxicity towards kidney A498 cells (in words)” value in the data set with A498 cells was “nontoxic”. In the data set on human erythrocytes, the “hemolytic activity on human erythrocytes (in words, considering HC10)” value is “totally inactive”; the HC10 is recorded as greater than 100 µM; the HC50 is greater than 100 µM.
In the case of `CC(C)C[C@@H]1NC(=O)[C@H](C(C)C)NC(=O)CNC(=O)[C@H](CCCNC(=N)N)NC(=O)[C@H](C(C)C)NC(=O)[C@H](CCCNC(=N)N)NC(=O)[C@H](C(C)C)NC(=O)[C@H](Cc2ccc(O)cc2)NC(=O)[C@H](C)NC(=O)[C@H](Cc2ccc(O)cc2)NC(=O)[C@H](C(C)C)NC(=O)[C@@H](NC(=O)[C@H](Cc2c[nH]c3ccccc23)NC(=O)[C@@H](N)CCCNC(=N)N)CSSC[C@@H](C(=O)N[C@@H](Cc2c[nH]c3ccccc23)C(=O)O)NC(=O)[C@H](CCCNC(=N)N)NC(=O)[C@H](CCCNC(=N)N)NC(=O)[C@H](Cc2ccc(O)cc2)NC(=O)[C@H](CCCNC(=N)N)NC(=O)[C@H](C(C)C)NC1=O` [Ar-1] (H-RWCVYAYVRVRGVLVRYRRCW-OH; disulfide 3-20), in the data set with M. abscessus S and R, the “mean MIC50” value was determined as 11.5 ± 1.0 µM. In addition, in [1], the half-maximal cytotoxic concentration (CC50) was greater than 100 µM. Moreover, the CC50 in data set [2] was greater than 100 µM. In addition, in the data set with A498 cells, the “toxicity towards kidney A498 cells (in words)” value is “nontoxic”. Moreover, in the data set on human erythrocytes, the HC10 was 20.2 ± 1.8 µM and the HC50 is recorded as greater than 100 µM.
As to `CC[C@H](NC(=O)[C@H](CCCNC(=N)N)NC(=O)[C@H](CCCNC(=N)N)NC(=O)[C@H](Cc1ccc(O)cc1)NC(=O)[C@H](CC)NC(=O)[C@@H](NC(=O)[C@H](CCCNC(=N)N)NC(=O)[C@@H](NC(=O)CNC(=O)[C@H](CC(N)=O)NC(=O)[C@H](CCCNC(=N)N)NC(=O)[C@H](Cc1ccc(O)cc1)NC(=O)[C@@H](NC(=O)[C@H](CC)NC(=O)[C@@H](NC(=O)[C@H](Cc1ccc(O)cc1)NC(=O)[C@H](Cc1c[nH]c2ccccc12)NC(=O)[C@H](CC)NC(=O)[C@H](Cc1ccccc1)NC(=O)CN)C(C)C)C(C)C)C(C)C)C(C)C)C(=O)N[C@@H](CC(N)=O)C(=O)O` [Ar-3-Abu] (H-GF[Abu]WYV[Abu]VYRNGVRV[Abu]YRR[Abu]N-OH), the MIC50 in data set [3] (setting [6]) and in data set [4] (setting [6]) was greater than 100 µM in each case. The MIC90 in [3] (setting [7]) and in [4] (setting [7]) was greater than 100 µM each time. Also, the CC50 is greater than 100 µM in data set [1], greater than 100 µM in data set [2] and 36.6 ± 0.9 µM in [5]. Moreover, the HC10 in the data set on human erythrocytes is listed as 39.3 ± 3.2 µM. In the data set on human erythrocytes, the HC50 was greater than 100 µM.
`CC[C@H]1OC(=O)[C@H](C)[C@@H](O[C@H]2C[C@@](C)(OC)[C@@H](O)[C@H](C)O2)[C@H](C)[C@@H](O[C@@H]2O[C@H](C)C[C@H](N(C)C)[C@H]2O)[C@](C)(OC)C[C@@H](C)C(=O)[C@H](C)[C@@H](O)[C@]1(C)O` [CLR, clarithromycin]: the “increase in MIC90 values” in the data set on M. abscessus R and in the data set with M. abscessus S was 32 fold throughout.

These data come from paper PMC10823733, “Promising antibacterial efficacy of arenicin peptides against the emerging opportunistic pathogen Mycobacterium abscessus” (Journal of Biomedical Science, 2024).
